In paper PMC3179684 (Toxicological Sciences, 2011):
“And” between values parts separate entries of the source, which are not always exact repeats. Identical values can stand only once. Like-named read-outs stand apart in the source and are kept apart here. Marks after values point to notes of the source that are not given here.

How the values were obtained:
[1] = determined using a synthetic iron porphyrin; ref Collman et al., 1986; cited from earlier work
[2] = test system: CYP; assay: Metabolic ET elimination in mouse liver microsomes; assay type: in vitro ADME, B6C3F1 mice; conditions: 10 mg protein/ml, ET 170 ppm in vessel atmosphere
[3] = mouse, gas uptake; ref Artati et al. (2009); cited from earlier work
[4] = test system: CYP; assay: EO formation in ET-exposed rat lung microsomes; assay type: in vitro ADME, Fischer 344 rats
[5] = rats; ref Hamm et al., 1984; cited from earlier work
[6] = test system: CYP; assay: EO formation in ET-exposed mouse lung microsomes; assay type: in vitro ADME, B6C3F1 mice
[7] = in vitro and in vivo in rodents; ref Victorin and Ståhlberg, 1988; Walker et al., 2000; cited from earlier work
[8] = value used in the physiological toxicokinetic model; ref Csanády et al. (2000); cited from earlier work
[9] = test system: CYP; assay: EO formation in ET-exposed liver microsomes of CYP2E1 knockout mice; assay type: in vitro ADME, 129/Sv-Cyp2e1tm1Gonz/J mice (CYP2E1 knockout mice); conditions: pooled liver microsomes of 50 CYP2E1 knockout mice
[10] = test system: hepatic CYP; conditions: rats, 600 ppm ET, cited from earlier work
[11] = target: T1, CYP2E1 (Mus musculus, UniProt Q05421); assay: EO formation in ET-exposed liver microsomes of wild-type mice; assay type: in vitro ADME, 129S1/SvImJ mice (wild-type mice)
[12] = Thermodynamic partition coefficient medium-to-air; assay type: physicochemical; conditions: microsomal incubations, 37°C (ET n = 5, EO n = 3)
[13] = target: T1, CYP2E1; assay: EO formation in ET-exposed mouse liver microsomes; assay type: in vitro ADME, B6C3F1 mice
[14] = target: CYP2E1 (Homo sapiens, UniProt P05181); assay: EO formation in ET-exposed human liver microsomes; assay type: in vitro ADME
[15] = rat, gas uptake, cited from earlier work
[16] = target: CYP2E1 (Rattus norvegicus, UniProt P05182); assay: EO formation in ET-exposed rat liver microsomes; assay type: in vitro ADME, Fischer 344 rats
[17] = 37°C, pH 7, estimated; ref Faller et al., 2001; cited from earlier work
[18] = test system: epoxide hydrolase (EH); conditions: rat liver microsomes; about the same obtained here; ref Faller et al., 2001; cited from earlier work
[19] = GSH 15 mmol/l; ref Faller et al. (2001); cited from earlier work
[20] = test system: epoxide hydrolase (EH); conditions: mouse liver microsomes; about the same obtained here; ref Faller et al., 2001; cited from earlier work

CYP2E1 (Rattus norvegicus, UniProt P05182), sequence (P05182 whole entry): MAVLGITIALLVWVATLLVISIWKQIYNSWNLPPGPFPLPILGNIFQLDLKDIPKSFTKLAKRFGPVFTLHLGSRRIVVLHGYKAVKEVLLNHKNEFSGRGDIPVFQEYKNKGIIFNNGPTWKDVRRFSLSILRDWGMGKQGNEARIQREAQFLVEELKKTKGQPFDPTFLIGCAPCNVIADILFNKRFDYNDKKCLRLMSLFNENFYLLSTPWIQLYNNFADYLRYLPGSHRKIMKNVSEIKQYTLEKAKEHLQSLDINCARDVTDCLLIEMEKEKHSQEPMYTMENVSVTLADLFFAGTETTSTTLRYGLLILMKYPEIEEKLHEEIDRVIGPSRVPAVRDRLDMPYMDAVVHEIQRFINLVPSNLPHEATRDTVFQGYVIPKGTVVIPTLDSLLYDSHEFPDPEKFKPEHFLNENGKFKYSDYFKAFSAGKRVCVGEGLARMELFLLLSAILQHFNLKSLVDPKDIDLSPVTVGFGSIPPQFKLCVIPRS
T1 sequence (Q05421 whole entry): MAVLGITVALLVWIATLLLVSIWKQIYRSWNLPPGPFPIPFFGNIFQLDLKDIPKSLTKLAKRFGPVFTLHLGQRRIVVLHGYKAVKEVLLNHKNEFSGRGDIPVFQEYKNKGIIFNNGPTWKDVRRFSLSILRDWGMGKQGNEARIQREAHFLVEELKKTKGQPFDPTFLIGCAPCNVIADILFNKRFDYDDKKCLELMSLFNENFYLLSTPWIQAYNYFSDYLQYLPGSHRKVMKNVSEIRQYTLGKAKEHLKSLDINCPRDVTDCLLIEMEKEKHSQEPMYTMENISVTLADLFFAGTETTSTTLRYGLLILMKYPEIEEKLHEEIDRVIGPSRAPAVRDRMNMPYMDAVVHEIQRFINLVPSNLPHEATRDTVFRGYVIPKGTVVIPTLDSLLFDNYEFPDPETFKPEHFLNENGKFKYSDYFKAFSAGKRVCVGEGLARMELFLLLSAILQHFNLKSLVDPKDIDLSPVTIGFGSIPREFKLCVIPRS
CYP2E1 (Homo sapiens, UniProt P05181), sequence (P05181 whole entry): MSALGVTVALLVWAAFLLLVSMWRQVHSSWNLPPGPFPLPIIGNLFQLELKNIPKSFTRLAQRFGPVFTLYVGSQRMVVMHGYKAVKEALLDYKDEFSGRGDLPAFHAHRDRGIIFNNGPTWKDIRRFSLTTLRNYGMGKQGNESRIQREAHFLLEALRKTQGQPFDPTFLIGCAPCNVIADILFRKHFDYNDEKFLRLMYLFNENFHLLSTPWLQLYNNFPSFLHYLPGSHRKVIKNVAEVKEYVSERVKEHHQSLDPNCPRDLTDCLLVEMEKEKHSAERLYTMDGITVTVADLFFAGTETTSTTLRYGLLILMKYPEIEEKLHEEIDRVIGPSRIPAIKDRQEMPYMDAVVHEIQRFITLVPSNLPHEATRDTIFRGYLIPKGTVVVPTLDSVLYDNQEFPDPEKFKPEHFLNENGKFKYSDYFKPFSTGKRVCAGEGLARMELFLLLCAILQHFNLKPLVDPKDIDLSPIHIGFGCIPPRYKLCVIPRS

For C=Cc1ccccc1 [Styrene, styrene], which “partition ratio k3/k4” value [1] is on record?
Its value is 10,000.

With C=C [ET, ethylene] as the molecule, how does the “initial rate of metabolic ET elimination” value [2] read?
The value was 0.069 nmol/min/mg protein.

And the “Km, determined in vivo” value [3]?
The value was 105 ^d ppm in air.

And the “VmaxET, determined in vivo” value [3]?
Its value is 15 ^d μmol/h/kg.

And the “k4 (suicide inactivation rate constant)” value ([4]; lung microsomes pooled from 50 rats, two incubations)?
Its value is 0.573 min⁻¹ and 0.392 min⁻¹.

What about the “VmaxEO (maximum EO formation rate)” value ([4]; pooled rat lung microsomes, mean of 18,600 and 57,800 ppm ET) of the same molecule?
Its value is 0.055 nmol/min/mg protein.

And the long-term carcinogenicity study [5]?
Its long-term carcinogenicity study is “negative”.

What about the “k4 (suicide inactivation rate constant)” value ([6]; lung microsomes pooled from 150 mice, two incubations) of the same molecule?
Its value is 0.306 min⁻¹ and 0.326 min⁻¹.

And the “VmaxEO (maximum EO formation rate)” value ([6]; pooled mouse lung microsomes, mean of 16,500 and 75,400 ppm ET)?
Its value is 0.073 nmol/min/mg protein.

What about the mutagenicity [7] of the same molecule?
The mutagenicity was “negative”.

What about the “apparent Michaelis constant of the ET oxidation in the liver compartment” value [8] of the same molecule?
The value was 0.0005 mmol/L.

And the “VmaxEO (maximum rate of EO formation)” value [9]?
The value was 0.074 nmol/min/mg protein.

What about the “hepatic 4-nitrophenol hydroxylase activity (predominantly CYP2E1) remaining” value ([10]; after 4 h, ref Fennell et al., 2004) of the same molecule?
Its value is 50%.

What about the “hepatic CYP remaining after inactivation” value ([10]; after 360 min of exposure, ref Maples and Dahl, 1993) of the same molecule?
The value was 68%.

And the “VmaxEO in wild-type mice relative to CYP2E1 knockout mice” value ([11]; liver microsomes)?
Its value is “about 15 times higher”.

What about the “ratio of VmaxEO/Km in wild-type mice to VmaxEO/Km in CYP2E1 knockout mice” value ([11]; liver microsomes) of the same molecule?
Its value is 340.

And the “VmaxEO (maximum rate of EO formation)” value ([11]; pooled liver microsomes of 50 wild-type mice)?
Its value is 1.1 nmol/min/mg protein.

What about the “Keq (thermodynamic partition coefficient medium-to-air)” value [12] of the same molecule?
Its value is 0.2 ± 0.06 and 0.2.

And the “VmaxEO (maximum EO formation rate)” value ([13]; liver microsomes pooled from 50 mice, 37°C, mean ± SE)?
The value was 0.567 nmol/min/mg protein and 0.567 ± 0.038 nmol/min/mg protein.

What about the “time in which hepatic CYP2E1 decreases to about one third of the initial status” value ([13]; mice, very high ET concentrations, expected from k4) of the same molecule?
The value was 18 min.

What about the “Km, predicted from in vitro” value ([13]; mouse, Km in suspension divided by Kst 0.55) of the same molecule?
Its value is 400 ppm in air.

And the “k3/k4 (partition ratio)” value ([13]; pooled mouse liver microsomes, mean ± SE)?
The value was 100 ± 9.

And the “k4 (suicide inactivation rate constant)” value ([13]; pooled mouse liver microsomes, six ET incubations, mean ± SE)?
Its value is 0.060 ± 0.005 min⁻¹.

What about the “k3 (catalytic rate constant of EO formation)” value ([13]; pooled mouse liver microsomes, VmaxEO divided by CYP2E1 content, mean ± SE) of the same molecule?
The value was 5.9 ± 0.6 min⁻¹.

And the “k3/k4 (partition ratio)” value ([14]; human liver microsomes, mean ± SE)?
The value was 39 ± 6.

And the “k4 (suicide inactivation rate constant)” value ([14]; human liver microsomes, nine ET incubations, mean ± SE)?
Its value is 0.098 ± 0.013 min⁻¹.

What about the “Km, predicted from in vitro” value ([14]; human, Km in suspension divided by Kst 0.33) of the same molecule?
The value was 963 ppm in air.

And the “time in which hepatic CYP2E1 decreases to about one third of the initial status” value ([14]; humans, very high ET concentrations, expected from k4)?
The value was 11 min.

And the “VmaxEO (maximum EO formation rate)” value ([14]; liver microsomes from one individual, mean ± SE)?
Its value is 0.253 ± 0.0002 nmol/min/mg protein.

What about the “VmaxEO (maximum EO formation rate)” value ([14]; liver microsomes pooled from 25 humans, 37°C, mean ± SE) of the same molecule?
Its value is 0.219 nmol/min/mg protein and 0.219 ± 0.005 nmol/min/mg protein.

And the “k3 (catalytic rate constant of EO formation)” value ([14]; pooled human liver microsomes, VmaxEO divided by CYP2E1 content, mean ± SE)?
Its value is 3.2 ± 0.2 min⁻¹.

And the “Km, determined in vivo” value ([15]; ref Andersen et al. (1980))?
Its value is 218 ^f ppm in air.

And the “VmaxET, determined in vivo” value ([15]; ref Andersen et al. (1980))?
Its value is 8.6 ^f μmol/h/kg.

And the “Km, determined in vivo” value ([15]; ref Bolt et al. (1984))?
Its value is 204 ^e ppm in air.

And the “VmaxET, determined in vivo” value ([15]; ref Bolt et al. (1984))?
Its value is 8.5 ^e μmol/h/kg.

What about the “VmaxEO (maximum EO formation rate)” value ([16]; liver microsomes pooled from 10 rats, 37°C, mean ± SE) of the same molecule?
The value was 0.401 nmol/min/mg protein and 0.401 ± 0.013 nmol/min/mg protein.

And the “k4 (suicide inactivation rate constant)” value ([16]; pooled rat liver microsomes, eight ET incubations, mean ± SE)?
Its value is 0.070 ± 0.006 min⁻¹.

What about the “k3/k4 (partition ratio)” value ([16]; pooled rat liver microsomes, mean ± SE) of the same molecule?
Its value is 169 ± 15.

And the “k3 (catalytic rate constant of EO formation)” value ([16]; pooled rat liver microsomes, VmaxEO divided by CYP2E1 content, mean ± SE)?
Its value is 11.2 ± 1.5 min⁻¹.

And the “Km, predicted from in vitro” value ([16]; rat, Km in suspension divided by Kst 0.50)?
The value was 1516 ppm in air.

For CC1CO1 (centres unmarked) [PO, propylene oxide], which “half-life of the noncatalyzed aqueous hydrolysis” value [17] is on record?
The value was 88 h.

What about the “hepatic microsomal elimination clearance” value [18] of the same molecule?
Its value is 9.9 μl/min/mg protein.

And the “half-life of nonenzymatic GSH conjugation” value [19]?
Its value is 1.7 h.

What about the “hepatic microsomal elimination clearance” value [20] of the same molecule?
The value was 4.4 μl/min/mg protein.
